Reference: article PMC5615103 (Toxicology Reports, 2017)
Entries after “also recorded” stand apart in the source; their conditions may differ. Read-outs that look alike come from different tables or passages of the source. Marks after values point to notes of the source that are not given here.

What was measured:
[1] = human plasma, cited from earlier work
[2] = average plasma maximum concentration; format: in vivo, humans; conditions: human
[3] = cited from earlier work; for DILI classification (b) positive or negative for DILI: ref Xu et al. [33]; for iDILI/non-iDILI: selected by literature research, ref [30], [4], [8], [31], [32]; for DILI classification (a) LTKB class: Liver Toxicity Knowledge Base, ref Chen et al. [34]; for FDA status: FDA-approved labels, ref DailyMed
[4] = test system: HepG2 cells; assay: HepG2 monoculture, increasing drug concentrations with or without TNF, WST-1; format: cell-based, human; conditions: 24 h; for TNF-dependent synergistic effect at increasing drug concentrations: with vs without 10 ng/mL TNF
[5] = test system: HepG2 cells; assay: HepG2 viability; format: cell-based, human; conditions: 10 ng/mL TNF, 24 h; for synergistic effect (enhanced cellular death) on co-exposure with TNF: HepG2 monoculture, 32 μM TGZ/RGZ, 25 μM TVX/LVX, 125 μM DcL/ASS, 20 μM KC/FC; for change of the TNF-dependent synergistic effect by addition of THP-1 monocytes: co-culture HepG2 + THP-1 monocytes
[6] = WST-1 dose-response cytotoxicity in THP-1 monocytes; format: cell-based, human; conditions: human, THP-1 monocytes
[7] = test system: THP-1 monocytes; assay: as above; format: cell-based, human; conditions: for EC50: Homo sapiens, THP-1, 24 h; for EC80 (concentration at which 80% of the cells are still viable): THP-1 monocytes, 24 h, WST-1
[8] = test system: HepG2 cells; assay: Morphology of HepG2 cell cultures; format: cell-based, human; conditions: 24 h; for alterations in the morphology of HepG2 cell cultures: 25 μM TVX or 125 μM DcL + 10 ng/mL TNF
[9] = WST-1 dose-response cytotoxicity in HepG2 monoculture; format: cell-based, human; conditions: human, HepG2 cells (monoculture)
[10] = test system: HepG2 cells; assay: as above; format: cell-based, human; conditions: for EC80 (concentration at which 80% of the cells are still viable) / EC50: HepG2, 24 h; for EC80 (concentration at which 80% of the cells are still viable): WST-1; for EC50: Homo sapiens
[11] = test system: HepG2 cells; assay: HepG2 viability; format: cell-based, human; conditions: 3-5 × 10^5 THP-1 monocytes, no stimulus; same concentrations
[12] = test system: HepG2 cells; assay: HepG2 viability; format: cell-based, human; conditions: 1 μg/mL LPS, 48 h; for enhanced cell death in HepG2 cells on co-exposure with LPS: mono- and co-cultures with THP-1 monocytes, 25 μM TVX/LVX, 20 μM KC/FC; for synergy with LPS in co-culture with THP-1 monocytes: co-culture HepG2 + THP-1 monocytes

SMILES | Cmax [2] | DILI classification (b) positive or negative for DILI [3] | iDILI/non-iDILI [3] | synergistic effect (enhanced cellular death) on co-exposure with TNF [5] | EC50 [7] | EC80 (concentration at which 80% of the cells are still viable) [7] | EC80 (concentration at which 80% of the cells are still viable) [10] | EC50 [10] | DILI classification (a) LTKB class [3] | influence of higher THP-1 monocyte number on the effect in co-culture [11] | enhanced cell death in HepG2 cells on co-exposure with LPS [12] | FDA status [3] | further results
CC(=O)Oc1ccccc1C(=O)O [ASS, Acetylsalicylic acid] | 552 µM | negative | Non-iDILI | – | – | – | – | – | – | – | – | – | Cmax ([1]; commonly recommended therapeutic doses, ref Xu et al. [33]): 1.00 µg/mL
O=C(O)Cc1ccccc1Nc1c(Cl)cccc1Cl [DcL, Diclofenac] | 744 µM | positive | – | stronger than in the case of TGZ and KC | 76 µM | 30 µM | 604 µM | 775 µM | Most DILI-concern | enhanced by higher numbers of immune cells | – | – | doses necessary to elicit enhanced toxicities (onset of synergy with TNF) ([4]; 10 ng/mL TNF): > 50 µM; synergistic effect when co-exposed with TNF ([4]; drug 50 μM, 10 ng/mL TNF): not able to induce a synergistic effect; TNF-dependent synergistic effect at increasing drug concentrations [4]: stronger than those of TGZ and KC; change of the TNF-dependent synergistic effect by addition of THP-1 monocytes [5]: compensated in the co-culture system; viability at 24 h, 125 μM [6]: ~30%; alterations in the morphology of HepG2 cell cultures [8]: pronounced hepatocellular injury; morphology of HepG2 cells ([8]; selected concentration (125 μM), drug alone): morphological changes; viability at 24 h, 125 μM [9]: ~100%; cytotoxicity / metabolic activity at the used concentration ([10]; HepG2, same concentration as in co-culture experiments, 24 h): no cytotoxicity; also recorded: not affected
OC(Cn1cncn1)(Cn1cncn1)c1ccc(F)cc1F [FC, Fluconazole] | 882 µM | positive | – | – | – | – | – | – | Most DILI-concern | – | did not show any relevant effects | – | –
CC(=O)N1CCN(c2ccc(OCC3COC(Cn4ccnc4)(c4ccc(Cl)cc4Cl)O3)cc2)CC1 (centres unmarked) [KC, Ketoconazole] | 794 µM | – | iDILI | – | 12 µM | 7 µM | 18 µM | 24 µM | Most DILI-concern | enhanced by higher numbers of immune cells | significantly enhanced cell death | BBW | change of the TNF-dependent synergistic effect by addition of THP-1 monocytes [5]: compensated in the co-culture system; synergy with LPS in co-culture with THP-1 monocytes [12]: showed a synergy only in the presence of both; Cmax ([1]; ref Huang et al. [35]): 4.22** μg/mL; viability at 24 h, 20 μM [6]: ~20%; viability at 24 h, 20 μM [9]: ~80%
C[C@H]1COc2c(N3CCN(C)CC3)c(F)cc3c(=O)c(C(=O)O)cn1c23 [LVX, Levofloxacin] | 1580 µM | negative | – | – | – | – | – | – | – | – | did not show any relevant effects | – | –
CN(CCOc1ccc(CC2SC(=O)NC2=O)cc1)c1ccccn1 (centres unmarked) [RGZ, Rosiglitazone] | 104 µM | negative | Non-iDILI | – | – | – | – | – | – | only negligible effects | – | – | cytotoxicity at 24 h, 32 µM [6]: 10%
Cc1c(C)c2c(c(C)c1O)CCC(C)(COc1ccc(CC3SC(=O)NC3=O)cc1)O2 (centres unmarked) [TGZ, Troglitazone] | 639 µM | positive | iDILI | synergy | 42 µM | 27 µM | 34 µM | 40 µM | Most DILI-concern | enhanced at higher THP-1 cell numbers | – | WDN | viability at 24 h, 32 μM [6]: ~70%; viability at 24 h, 32 μM [9]: ~85%
N[C@@H]1[C@H]2CN(c3nc4c(cc3F)c(=O)c(C(=O)O)cn4-c3ccc(F)cc3F)C[C@@H]12 [TVX, Trovafloxacin] | 408 µM | – | iDILI | stronger than in the case of TGZ and KC | 60 µM | 23 µM | 100 µM | 370 µM | – | – | significantly enhanced cell death | WDN | TNF-dependent synergistic effect at increasing drug concentrations [4]: dose-dependently increased; synergy with LPS in the HepG2 monoculture ([12]; HepG2 monoculture): showed a synergy; synergy with LPS in co-culture with THP-1 monocytes [12]: not intensified by immune cells; viability at 24 h, 25 μM [6]: ~76%; alterations in the morphology of HepG2 cell cultures [8]: pronounced hepatocellular injury; viability at 24 h, 25 μM [9]: ~92%
